Measurements reported in patent publication US9120779B2, “Inhibitors of HCV NS5A” (PRESIDIO PHARMACEUTICALS, INC., priority 2008, dated 2015).
Read-outs that look alike come from different tables or passages of the source.

Tested on: HCV genotype 1b replicon in Huh 7 cells
Assay: HCV replicon assay (luciferase readout, 1b_Huh-Luc/Neo-ET cell line)
Assay type: cell-based
Conditions: Hepatitis C virus, Huh-7, 72 h
Procedure: Biological activity of the compounds of the invention was determined using an HCV replicon assay. The 1b_Huh-Luc/Neo-ET cell line persistently expressing a bicistronic genotype 1b replicon in Huh 7 cells was obtained from R^eBLikon GMBH. This cell line was used to test compound inhibition using luciferase enzyme activity readout as a measurement of compound inhibition of replicon levels.
On Day 1 (the day after plating), each compound is added in triplicate to the cells. Plates incubated for 72 h prior to running the luciferase assay. Enzyme activity was measured using a Bright-Glo Kit (cat. number E2620) manufactured by Promega Corporation. The following equation was used to generate a percent control value for each compound. % Control=(Average Compound Value/Average Control)*100
The EC50 value was determined using GraphPad Prism and the following equation: Y=Bottom+(Top−Bottom)/(1+10^((Log IC50−X)*HillSlope))
EC50 values of compounds are repeated several times in the replicon assay.
Example compounds of the disclosed invention are illustrated in Tables 1-9 attached as appendices. The tables show inhibitory activity of many of the example compounds with respect to HCV 1b. […] The tables further provide mass spectrometry results for the synthesized example compounds.

[1] = read-out: Inhibition of HCV genotype 1b, Table 1, 72 h incubation
[2] = read-out: Inhibition of HCV genotype 1b, Table 3, 72 h incubation
[3] = read-out: Inhibition of HCV genotype 1b, Table 5, 72 h incubation
[4] = read-out: Inhibition of HCV genotype 1b, Table 4, 72 h incubation

COC(=O)N[C@H](C(=O)N1CCC[C@H]1c1ncc(-c2ccc([C@H]3CC[C@H](c4cnc([C@@H]5CCCN5C(=O)[C@H](C(C)C)N(C)C)[nH]4)CC3)cc2)[nH]1)C(C)C [compound 941]
EC50 [1]: < 1 nM

COC(=O)N[C@@H](C(=O)N1CCC[C@H]1c1ncc(C2CCN(c3c(F)cc(-c4cnc([C@@H]5CCCN5C(=O)[C@H](NC(=O)C5CC5)c5ccccc5)[nH]4)cc3F)CC2)[nH]1)c1ccccc1 [compound 480]
EC50 [2]: < 1 nM

COC(=O)N[C@H](C(=O)N1CCC[C@H]1c1ncc(-c2ccc(C34CCC(c5cnc([C@@H]6CCCN6C(=O)[C@@H](NC(=O)OC)[C@@H](C)OC)[nH]5)(CC3)CC4)cc2)[nH]1)[C@@H](C)OC [compound 612]
EC50 [3]: < 1 nM

COC(=O)N[C@H](C(=O)N1CCC[C@H]1c1ncc(-c2ccc(C34CCC(c5cnc([C@@H]6CCCN6C(=O)[C@@H](c6ccccc6)N6CCCCC6)[nH]5)(CC3)CC4)cc2)[nH]1)C(C)C [compound 632]
EC50 [3]: < 1 nM

CC(C)[C@@H](NC(=O)OC(C)(C)C)C(=O)N1CCC[C@H]1C(=O)N[C@H]1CC[C@@H](c2ccc(-c3cnc([C@@H]4CCCN4C(=O)[C@H](NC(=O)OC(C)(C)C)C(C)C)[nH]3)cc2)CC1 [compound 357]
EC50 [1]: 10 to 999 nM

COC(=O)N[C@H](C(=O)N1CCC[C@H]1c1ncc(-c2cc(F)c(N3CCC(c4cnc([C@@H]5CCCN5C(=O)[C@@H](NC(=O)OC)C(C)C)[nH]4)CC3)c(F)c2)[nH]1)C(C)C [compound 499]
EC50 [2]: < 1 nM

CC(C)[C@H](NC(=O)OC(C)(C)C)C(=O)N1CCC[C@H]1c1nc2ccc(-c3ccc(-c4ccc5nc([C@@H]6CCCN6C(=O)[C@@H](NC(=O)OC(C)(C)C)C(C)C)[nH]c5c4)cc3)cc2[nH]1 [compound 554]
EC50 [4]: > 1000 nM

CC(C)(C)OC(=O)N[C@@H](C(=O)N1CCC[C@H]1c1ncc(-c2ccc(C3CCC(c4cnc([C@@H]5CCCN5C(=O)[C@H](NC(=O)OC(C)(C)C)c5ccccc5)[nH]4)CC3)cc2)[nH]1)c1ccccc1 (stereo partly shown) [compound 367]
EC50 [1]: < 1 nM

COC(=O)N[C@H](C(=O)N1CCC[C@H]1c1ncc(-c2ccc(C34CCC(c5cnc([C@@H]6CCCN6C(=O)[C@@H](NC(=O)C6CCOCC6)C(C)C)[nH]5)(CC3)CC4)cc2)[nH]1)C(C)C [compound 641]
EC50 [3]: > 1000 nM

CC(C)[C@H](NC(=O)OC(C)(C)C)C(=O)N1CCC[C@H]1c1ncc(-c2ccc([C@H]3CC[C@H](c4cnc([C@@H]5CCCN5C(=O)[C@@H](NC(=O)OC(C)(C)C)C(C)C)[nH]4)CC3)cc2)[nH]1 [compound 383]
EC50 [1]: 10 to 999 nM

CC(C)(C)OC(=O)N[C@@H](C(=O)N1CCC[C@H]1c1ncc(-c2cc(F)c(N3CCC(c4cnc([C@@H]5CCCCN5C(=O)[C@H](NC(=O)OC(C)(C)C)c5ccccc5)[nH]4)CC3)c(F)c2)[nH]1)c1ccccc1 [compound 483]
EC50 [2]: < 1 nM

COC(=O)N[C@@H](C(=O)N1CCC[C@H]1c1ncc(-c2ccc(C34CCC(c5cnc([C@@H]6CCCN6C(=O)[C@@H](NC(=O)N6CCN(C)CC6)C(C)C)[nH]5)(CC3)CC4)cc2)[nH]1)c1ccccc1 [compound 637]
EC50 [3]: 1 to 9.9 nM

COC(=O)N[C@H](C(=O)N1CCC[C@H]1c1ncc(C23CCC(c4ccc(-c5cnc([C@@H]6CCCN6C(=O)[C@H](NC6CCOCC6)C(C)C)[nH]5)cc4)(CC2)CC3)[nH]1)C(C)C [compound 915]
EC50 [3]: < 1 nM

COC(=O)N[C@@H](C(=O)N1CCC[C@H]1c1ncc(-c2cc(F)c(N3CCC(c4cnc([C@@H]5CCCN5C(=O)[C@H](NC(=O)[C@@H]5CCCN5C)c5ccccc5)[nH]4)CC3)c(F)c2)[nH]1)c1ccccc1 [compound 472]
EC50 [2]: < 1 nM

COC(=O)N[C@H](C(=O)N1CCC[C@H]1c1nc2ccc(-c3ccc4nc([C@@H]5CCCN5C(=O)[C@@H](NC(=O)OC)C(C)C)[nH]c4c3)cc2[nH]1)C(C)C [Compound 850]
EC50 (read-out: Inhibition of HCV genotype 1b, Table 6, 72 h incubation): < 1 nM

COC(=O)N[C@@H](C(=O)N(C)[C@@H](C)c1ncc(C2CCN(c3c(F)cc(-c4cnc([C@@H]5CCCN5C(=O)[C@H](NC(=O)OC)c5ccccc5)[nH]4)cc3F)CC2)[nH]1)c1ccccc1 [compound 506]
EC50 [2]: < 1 nM

COC(=O)N[C@H](C(=O)N1CCC[C@H]1c1ncc(C23CCC(c4ccc(-c5cnc([C@@H]6CCCN6C(=O)[C@@H](NC(=O)N6CCN(C)CC6)C(C)C)[nH]5)cc4)(CC2)CC3)[nH]1)C(C)C [compound 646]
EC50 [3]: 10 to 999 nM

COC(=O)N[C@H](C(=O)N1CCC[C@H]1c1ncc(C23CCC(c4ccc(-c5cnc([C@@H]6CCCN6C(=O)[C@H](NC(=O)OC)c6ccccc6)[nH]5)cc4)(CC2)CC3)[nH]1)C(C)C [compound 617]
EC50 [3]: < 1 nM

CCC(CC)[C@H](NC(=O)OC)C(=O)N1CCC[C@H]1c1ncc(-c2ccc(C34CCC(c5cnc([C@@H]6CCCN6C(=O)[C@@H](NC(=O)OC)C(CC)CC)[nH]5)(CC3)CC4)cc2)[nH]1 [compound 910]
EC50 [3]: < 1 nM

COC(=O)N[C@@H](C(=O)N1CCC[C@H]1c1ncc(-c2cc(F)c(N3CCC(c4cnc([C@@H]5CCCN5C(=O)[C@H](NC(=O)OC)c5ccccc5)[nH]4)CC3)c(F)c2)[nH]1)c1ccccc1 [compound 459]
EC50 [2]: < 1 nM

COC(=O)N[C@H](C(=O)N1CCC[C@H]1c1ncc(-c2ccc(C34CCC(c5cnc([C@@H]6CCCN6C(=O)[C@@H](NC(=O)N6CCOCC6)C(C)C)[nH]5)(CC3)CC4)cc2)[nH]1)C(C)C [compound 2060]
EC50 [3]: < 1 nM

COC(=O)N[C@H](C(=O)N[C@@H](C)c1nc2ccc(-c3ccc(-c4ccc5nc([C@H](C)NC(=O)[C@@H](NC(=O)OC)C(C)C)[nH]c5c4)cc3)cc2[nH]1)C(C)C [compound 932]
EC50 [4]: < 1 nM

COC(=O)N[C@H](C(=O)N1CCC[C@H]1c1ncc(-c2ccc([C@H]3CC[C@H](c4cnc([C@@H]5CCCN5C(=O)[C@@H](c5ccccc5)N(C)C)[nH]4)CC3)cc2)[nH]1)C(C)C [compound 940]
EC50 [1]: < 1 nM

COC(=O)N[C@H](C(=O)N1CCC[C@H]1c1ncc(C23CCC(c4ccc(-c5cnc([C@@H]6CCCN6C(=O)[C@H](NC(=O)N6CCCCC6)C(C)C)[nH]5)cc4)(CC2)CC3)[nH]1)C(C)C [compound 2075]
EC50 [3]: < 1 nM

CC(C)(C)OC(=O)N[C@@H](C(=O)N1CCC[C@H]1CNC(=O)C12CCC(c3ccc(-c4cnc([C@@H]5CCCN5C(=O)[C@H](NC(=O)OC(C)(C)C)c5ccccc5)[nH]4)cc3)(CC1)CC2)c1ccccc1 [compound 600]
EC50 [3]: 1 to 9.9 nM

COC(=O)N[C@H](C(=O)N1CCC[C@H]1c1ncc(-c2ccc([C@H]3CC[C@](C)(c4cnc([C@@H]5CCCN5C(=O)[C@@H](NC(=O)OC)C(C)C)[nH]4)CC3)cc2)[nH]1)C(C)C [compound 2005]
EC50 [1]: < 1 nM

COC(=O)N[C@H](C(=O)N1CCC[C@H]1c1ncc(-c2ccc(C34CCC(c5cnc([C@@H]6CCCN6C(=O)[C@@H](NC(=O)N6CCCCC6)C(C)C)[nH]5)(CC3)CC4)cc2)[nH]1)C(C)C [compound 640]
EC50 [3]: > 1000 nM

COC(=O)N[C@@H](C(=O)N[C@@H](C)c1ncc(-c2cc(F)c(N3CCC(c4cnc([C@@H]5CCCN5C(=O)[C@H](NC(=O)OC)c5ccccc5)[nH]4)CC3)c(F)c2)[nH]1)c1ccccc1 [compound 518]
EC50 [2]: < 1 nM

COC(=O)N[C@@H](C(=O)N1CCOC[C@H]1c1ncc(C2CCN(c3c(F)cc(-c4cnc([C@@H]5CCCN5C(=O)[C@H](NC(=O)OC(C)(C)C)c5ccccc5)[nH]4)cc3F)CC2)[nH]1)c1ccccc1 [compound 497]
EC50 [2]: < 1 nM

COC(=O)N[C@H](C(=O)N1CCC[C@H]1c1ncc(-c2ccc([C@H]3CC[C@H](c4cnc([C@@H]5CCCN5C(=O)[C@@H](c5ccccc5)N5CCCCC5)[nH]4)CC3)cc2)[nH]1)C(C)C [compound 947]
EC50 [1]: < 1 nM

CC(C)[C@H](NC(=O)N1CCC(C)(O)CC1)C(=O)N1CCC[C@H]1c1ncc(-c2ccc(C34CCC(c5cnc([C@@H]6CCCN6C(=O)[C@@H](NC(=O)N6CCC(C)(O)CC6)C(C)C)[nH]5)(CC3)CC4)cc2)[nH]1 [compound 634]
EC50 [3]: < 1 nM

COC(=O)N[C@@H](C)C(=O)N1CCC[C@H]1c1ncc(C23CCC(c4ccc(-c5cnc([C@@H]6CCCN6C(=O)[C@@H](NC(=O)OC)C(C)C)[nH]5)cc4)(CC2)CC3)[nH]1 [compound 2061]
EC50 [3]: < 1 nM

COC(=O)N[C@@H](C(=O)N1CCC[C@H]1c1ncc(C23CCC(c4ccc(-c5cnc([C@@H]6CCCN6C(=O)[C@H](NC(=O)C6CC6)c6ccccc6)[nH]5)cc4)(CC2)CC3)[nH]1)c1ccccc1 [compound 625]
EC50 [3]: < 1 nM

COC(=O)N[C@H](C(=O)N[C@@H](C)c1nc2ccc(-c3ccc(-c4ccc5nc([C@@H]6CCCN6C(=O)[C@H](C(C)C)N(C)C)[nH]c5c4)cc3)cc2[nH]1)C(C)C [compound 937]
EC50 [4]: 1 to 9.9 nM

COC(=O)N[C@H](C(=O)N1CCC[C@H]1c1ncc(-c2ccc(C34CCC(c5cnc([C@@H]6CCCN6C(=O)[C@H](C(C)C)N(C)C(=O)OC)[nH]5)(CC3)CC4)cc2)[nH]1)C(C)C [compound 911]
EC50 [3]: < 1 nM

CC(C)(C)OC(=O)N[C@@H](C(=O)N1CCC[C@H]1C(=O)N[C@H]1CC[C@@H](c2cccc(-c3cnc([C@@H]4CCCN4C(=O)[C@H](NC(=O)OC(C)(C)C)c4ccccc4)[nH]3)c2)CC1)c1ccccc1 [compound 363]
EC50 [1]: < 1 nM

CC(C)[C@H](NC(=O)N1CCCC1)C(=O)N1CCC[C@H]1c1nc2ccc(-c3ccc(-c4ccc5nc([C@@H]6CCCN6C(=O)[C@@H](NC(=O)N6CCCC6)C(C)C)[nH]c5c4)cc3)cc2[nH]1 [compound 552]
EC50 [4]: > 1000 nM
